Measurements published in patent publication US20260354380A1, “PYRAZOLO PESTICIDAL COMPOUNDS” (BASF SE, priority 2022, published 2026).

Key:
Format in all cases: in vivo
Aedes aegypti = test: whole plant or invertebrate; details: 800 ppm; larvae; 2 days
Procedure, shortened: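 Visual larval mortality was assessed 2 days after treatment (28±1 °C, 80±5% RH). Formulations of compounds or mixtures (75% water/25% DMSO) were applied by micro-atomizer onto diet of 5-15 newly hatched larvae per water-filled well, two replicates per concentration.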

Spodoptera eridania = test: Action on Southern Armyworm (Spodoptera eridania), 2nd Instar Larvae; details: 300 ppm; 2nd instar larvae; 4 days after treatment
Procedure, shortened: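 2nd-instar Spodoptera eridania larvae (about 10–11 per pot) confined on sprayed, dried Lima bean plants (1st true leaf stage) in sealed bags. Spray solutions: acetone/water 1:1 plus 0.01% surfactant. Held 4 days near 25 °C, 20–40% RH; assessed for mortality and feeding reduction against untreated controls.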

Heliothis virescens = test: Action on Tobacco Budworm (Heliothis virescens); details: 800 ppm; egg and larval mortality; 5 days
Procedure, shortened: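 Eggs (15-25 per well) on diet were held 5 days at about 28±1 °C, 80±5% RH, then egg and larval mortality was scored by eye. Beforehand the diet had been sprayed with compound dilutions formulated in water/DMSO 75:25 v/v, in two replicates.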

Plutella xylostella = test: Action on Diamond Back Moth (Plutella xylostella), microtiter plates, insect diet, eggs; details: 800 ppm; egg and larval mortality; 5 days
Protocol: Example B8: Action on Diamond Back Moth (Plutella xylostella)
For evaluating control of diamond back moth (Plutella xylostella) the test unit consisted of 96-well-microtiter plates containing an insect diet and 15-25 P. xylostella eggs. The compounds or mixtures were formulated using a solution containing 75% water and 25% DMSO. Different concentrations of formulated compounds or mixtures were sprayed onto the insect diet at 5 μl, using a custom-built micro atomizer, at two replications. For experimental mixtures in these tests identical volumes of both mixing partners at the desired concentrations respectively, were mixed together. After application, microtiter plates were incubated at 28±1 °C, 80±5% RH for 5 days. Egg and larval mortality was then visually assessed.

Anthonomus grandis = test: Action on Boll Weevil (Anthonomus grandis); details: 800 ppm; egg and larval mortality; 5 days
Procedure, shortened: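 Diet in 96-well plates, seeded with 5-10 A. grandis eggs, received a spray of formulated compound (25% DMSO in water) at a range of concentrations, duplicated. Mortality of eggs and larvae was judged by eye after 5 days at about 25±1 °C, 75±5% relative humidity.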

Compound	mortality in comparison with untreated controls (Aedes aegypti)	mortality in comparison with untreated controls (Spodoptera eridania)	mortality in comparison with untreated controls (Heliothis virescens)	mortality in comparison with untreated controls (Plutella xylostella)	mortality in comparison with untreated controls (Anthonomus grandis)
Cc1ccc(C(C)C)c(N2C(=O)CS/C2=N\C(=O)Nc2ccc(-n3nc(C)c(NC(=O)c4ccc(OC(F)(F)F)cc4)c3NCC3OCCO3)cc2)c1 [Example C-100]	at least 50%	at least 75%	at least 75%	at least 75%	at least 75%
Cc1ccc(C(C)C)c(N2C(=O)CSC2=NC(=O)Nc2ccc(-n3nc(C)c(NC(=O)c4ccc(OC(F)(F)F)cc4)c3C)c(Cl)c2)c1 [Example C-45]	at least 50%	at least 75%	at least 75%	at least 75%	at least 75%
Cc1ccc(C(C)C)c(N2C(=O)CSC2=NC(=O)Nc2ccc(-n3nc(C)c(NC(=O)c4cc(F)c(F)cc4F)c3C)cc2)c1 [Example C-120]	at least 50%	at least 75%	at least 75%	at least 75%	at least 75%
Cc1ccc(C(C)C)c(N2C(=O)CSC2=NC(=O)Nc2ccc(-n3nc(C)c(NC(=O)c4ccc(Cl)cc4)c3C)cc2)c1 [Example C-111]	at least 50%	at least 75%	at least 75%	at least 75%	at least 75%
Cc1ccc(C(C)C)c(N2C(=O)CSC2=NC(=O)Nc2ccc(-n3nc(C)c(NC(=O)c4ccc(Cl)c(F)c4)c3C)cc2)c1 [Example C-109]	at least 50%	at least 75%	at least 75%	at least 75%	at least 75%
Cc1ccc(C(C)C)c(N2C(=O)CS/C2=N\C(=O)Nc2ccc(-n3nc(C)c(NC(=O)c4ccc(OC(F)(F)F)cc4)c3N)cc2)c1 [Example C-101]	at least 50%	at least 75%	at least 75%	at least 75%	at least 75%
Cc1ccc(C(C)C)c(N2C(=O)CSC2=NC(=O)Nc2ccc(-n3nc(C)c(NC(=O)c4ccc(Cl)c(Cl)c4)c3C)cc2)c1 [Example C-115]	at least 50%	at least 75%	at least 75%	at least 75%	at least 75%
Cc1ccc(C(C)C)c(N2CCSC2=NC(=O)Nc2ccc(-n3nc(C)c(NC(=O)c4ccc(OC(F)(F)F)cc4)c3C)cc2Cl)c1 [Example C-128]	at least 50%	at least 75%	at least 75%	at least 75%	at least 75%
Cc1ccc(C(C)C)c(N2C(=O)CS/C2=N\C(=O)Nc2cc(Cl)c(-n3nc(C)c(NC(=O)c4ccc(OC(F)(F)F)cc4)c3C)cc2C)c1 [Example C-98]	at least 50%	at least 75%	at least 75%	at least 75%	at least 75%
